Test results from US20070054899A1 (priority 2003, published 2007).
Where two headings read alike, the source gives them in different places.

What was measured:
[1] = test system: uterine hypertrophy induced by androstenedione; test: Activity in vivo: inhibition of uterine hypertrophy induced by androstenedione; design: species or system rat (Sprague-Dawley); conditions: Rattus norvegicus, 96 h, immature female rats, androstenedione 30 mg/kg for 4 days, read-out: % inhibition to doses (μg/Kg); for inhibition in vivo at 0.001 mg/kg: dose 1 μg/Kg; for inhibition in vivo at 0.003 mg/kg: dose 3 μg/Kg; for inhibition in vivo at 0.01 mg/kg: dose 10 μg/Kg; for inhibition in vivo at 0.1 mg/kg: dose 100 μg/Kg
Method: The activity in vivo of aromatase inhibition by compounds of formula (I) according to the invention has been tested according to the model established by Bharnagar et al. (1990).
In general, immature female rats of the Sprague-Dawley line of a weight ranging from 40 to 50 g have been treated with a dose of androstenedione at 30 mg/kg for 4 days, in the absence or in the presence of doses of various compounds of formula (I).
Four hours after administration of an aromatase inhibitor, the rats were sacrificed. Their uteruses were removed, cleared of adhering fat and conjunctive tissue, next the uteruses were weighed (wet weight). The dry weight of the uteruses was determined the following day after a step of drying for one night at 80° C.

[2] = target: T1, aromatase (microsomes from the human placenta) (Homo sapiens, UniProt P11511); test: Aromatase inhibition in vitro, tritiated water method, human placenta microsomes; assay type: biochemical
T1 construct: using microsomes from the human placenta as source of the enzyme; from tissue; host or cells: human placenta microsomes
T1 sequence (P11511 1-503): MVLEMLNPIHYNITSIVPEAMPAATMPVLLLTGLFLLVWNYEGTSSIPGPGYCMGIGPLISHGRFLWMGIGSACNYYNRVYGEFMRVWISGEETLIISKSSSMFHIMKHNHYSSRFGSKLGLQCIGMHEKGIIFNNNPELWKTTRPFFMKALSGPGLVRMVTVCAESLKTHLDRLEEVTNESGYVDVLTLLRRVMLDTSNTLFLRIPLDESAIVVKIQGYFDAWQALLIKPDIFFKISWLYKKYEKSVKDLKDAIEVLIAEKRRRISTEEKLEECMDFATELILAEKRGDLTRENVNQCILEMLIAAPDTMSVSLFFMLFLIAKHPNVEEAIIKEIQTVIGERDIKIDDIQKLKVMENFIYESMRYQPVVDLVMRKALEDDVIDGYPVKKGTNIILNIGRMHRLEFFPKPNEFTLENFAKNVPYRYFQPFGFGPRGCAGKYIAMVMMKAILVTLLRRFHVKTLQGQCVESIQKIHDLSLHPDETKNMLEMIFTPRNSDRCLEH

[3] = target: aromatase (e) (UniProt O46512); assay type: biochemical; conditions: value marked (e); read-out: Activity In vitro IC50(nM), (e)
Sequence of aromatase (e) (O46512 whole entry): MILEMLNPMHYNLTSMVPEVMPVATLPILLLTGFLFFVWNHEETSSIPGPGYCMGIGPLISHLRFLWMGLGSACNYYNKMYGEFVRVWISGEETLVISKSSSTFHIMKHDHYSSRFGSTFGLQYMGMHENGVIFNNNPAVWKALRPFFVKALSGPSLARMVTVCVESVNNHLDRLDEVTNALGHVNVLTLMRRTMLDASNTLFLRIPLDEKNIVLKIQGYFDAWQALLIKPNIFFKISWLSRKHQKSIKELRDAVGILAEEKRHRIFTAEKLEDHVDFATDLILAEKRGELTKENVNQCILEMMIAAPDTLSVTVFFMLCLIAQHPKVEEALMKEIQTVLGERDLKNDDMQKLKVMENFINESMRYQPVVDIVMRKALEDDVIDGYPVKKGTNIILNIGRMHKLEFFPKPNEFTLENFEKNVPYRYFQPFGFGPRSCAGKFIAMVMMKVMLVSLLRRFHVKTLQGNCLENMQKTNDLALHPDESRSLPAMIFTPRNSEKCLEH

[4] = value without (h)/(e) mark, read-out: Activity In vitro IC50
[5] = value marked (h), read-out: Activity In vitro IC50(nM), (h)

CN1C(=O)COc2ccc(C(c3ccc(C#N)cc3)n3ccnc3)cc21 (stereo not shown) [PCH222] was tested. Which inhibition in vivo at 0.001 mg/kg [1] did it give?
The inhibition in vivo at 0.001 mg/kg was 0%.

And the inhibition in vivo at 0.003 mg/kg [1]?
Its inhibition in vivo at 0.003 mg/kg is 22%.

And the inhibition in vivo at 0.01 mg/kg [1]?
The inhibition in vivo at 0.01 mg/kg was 32%.

And the IC50 [2, 4]?
Its IC50 is 3.44 nM.

Which IC50 [2, 5] does the source give for Cn1c(=O)oc2cc(C(c3ccncc3)n3ccnc3)ccc21 (stereo not shown) [PCH30] here?
The IC50 was 38 nM.

What about the IC50 [3] of the same molecule?
Its IC50 is 477 nM.

What does the source list for Cn1c(=O)oc2cc(C(c3cccnc3)n3ccnc3)ccc21 (stereo not shown) [PCH116]?
IC50 [2, 5]: 33.7 nM; IC50 [3]: 34.6 nM

With CN1C(=O)CSc2cc(C(c3ccc(C#N)cc3)n3cncn3)ccc21 (stereo not shown) [PCH231] as the molecule, how does the IC50 [2, 4] read?
Its IC50 is 56.6 nM.

How did the IC50 [2, 4] turn out when O=C1COc2ccc(C(c3ccccc3)n3ccnc3)cc2N1 (stereo not shown) [PCH218] was run?
Its IC50 is 65.5 nM.

O=c1[nH]c2ccc(C(c3ccccc3)n3ccnc3)cc2s1 (stereo not shown) [PCH100, 6-[1H-Imidazol-1-yl(phenyl)methyl]-1,3-benzothiazol-2(3H)-one] was tested. Which IC50 [2, 5] did it give?
Its IC50 is 33.7 nM.

What about the IC50 [3] of the same molecule?
Its IC50 is 34 nM.

How did the IC50 [2, 4] turn out when COc1cc2oc(=O)[nH]c2cc1C(c1ccc(C#N)cc1)n1ccnc1 (stereo not shown) [GCA36] was run?
Its IC50 is 19.9 nM.

Which IC50 [2, 4] does the source give for Cn1c(=O)sc2ccc(C(c3ccccc3)n3cncn3)cc21 (stereo not shown) [PCH134] here?
The IC50 was 179 nM.

Which inhibition in vivo at 0.001 mg/kg [1] does the source give for CN1C(=O)COc2ccc(C(c3ccccc3)n3ccnc3)cc21 (stereo not shown) [PCH213] here?
The inhibition in vivo at 0.001 mg/kg was 0%.

And the inhibition in vivo at 0.01 mg/kg [1]?
The inhibition in vivo at 0.01 mg/kg was 3%.

And the inhibition in vivo at 0.1 mg/kg [1]?
The inhibition in vivo at 0.1 mg/kg was 5%.

And the IC50 [2, 4]?
The IC50 was 5.64 nM.

N#Cc1cccc(C(c2ccc3[nH]c(=O)oc3c2)n2ccnc2)c1 (stereo not shown) [PCH119] was tested. Which IC50 [2, 5] did it give?
The IC50 was 25.1 nM.

And the IC50 [3]?
Its IC50 is 27.7 nM.

With O=c1[nH]c2ccc(C(c3ccccc3)n3ccnc3)cc2o1 (stereo not shown) [PCH10, 6-[1H-Imidazol-1-yl(phenyl)methyl]-1,3-benzoxazol-2(3H)-one] as the molecule, how does the IC50 [2, 5] read?
The IC50 was 84.6 nM.

And the IC50 [3]?
The IC50 was 103 nM.

What does the source list for N#Cc1ccc(C(c2ccc3c(c2)SCC(=O)N3)n2cncn2)cc1 (stereo not shown) [PCH230]?
inhibition in vivo at 0.01 mg/kg [1]: 2%; inhibition in vivo at 0.1 mg/kg [1]: 22%; inhibition in vivo at 1 mg/kg ([1]; dose 1000 μg/Kg): 74%; IC50 [2, 4]: 34.8 nM

Which IC50 [2, 4] does the source give for Cn1c(=O)oc2ccc(C(c3ccccc3)n3cncn3)cc21 (stereo not shown) [PCH183, 3-Methyl-5-[1H-1,2,4-triazol-1-yl(phenyl)methyl]-1,3-benzoxazol-2(3H)-one] here?
The IC50 was 1810 nM.

With N#Cc1ccc(C(c2ccc(C#N)cc2)n2cncn2)cc1 [Letrozole, reference compound] as the molecule, how does the inhibition in vivo at 0.001 mg/kg [1] read?
Its inhibition in vivo at 0.001 mg/kg is 66%.

And the inhibition in vivo at 0.003 mg/kg [1]?
The inhibition in vivo at 0.003 mg/kg was 74%.

What about the inhibition in vivo at 0.005 mg/kg ([1]; dose 5 μg/Kg) of the same molecule?
Its inhibition in vivo at 0.005 mg/kg is 91%.

And the inhibition in vivo at 0.01 mg/kg [1]?
The inhibition in vivo at 0.01 mg/kg was 90%.

With CCn1c(=O)sc2cc(C(c3ccc(C#N)cc3)n3ccnc3)ccc21 (stereo not shown) [PCH241] as the molecule, how does the inhibition in vivo at 0.001 mg/kg [1] read?
The inhibition in vivo at 0.001 mg/kg was 18%.

What about the inhibition in vivo at 0.003 mg/kg [1] of the same molecule?
The inhibition in vivo at 0.003 mg/kg was 37%.

And the inhibition in vivo at 0.01 mg/kg [1]?
Its inhibition in vivo at 0.01 mg/kg is 16%.

And the IC50 [2, 4]?
Its IC50 is 4.29 nM.

Which IC50 [2, 4] does the source give for O=C1CSc2cc(C(c3ccccc3)n3ccnc3)ccc2N1 (stereo not shown) [PCH227, 7-[1H-Imidazol-1-yl(phenyl)methyl]-1,4-benzothiazin-3(4H)-one] here?
Its IC50 is 55.1 nM.

With Cn1c(=O)sc2cc(C(c3ccccc3)n3ccnc3)ccc21 (racemic) [(E1)PCH28] as the molecule, how does the IC50 [3] read?
Its IC50 is 24.9 nM.

For N#Cc1ccc(C(c2ccc3c(c2)NC(=O)CO3)n2ccnc2)cc1 (stereo not shown) [PCH225], which IC50 [2, 4] is on record?
The IC50 was 9.9 nM.

For N#Cc1ccc(C(c2ccc3[nH]c(=O)sc3c2)n2ccnc2)cc1 (stereo not shown) [PC11215], which inhibition in vivo at 0.001 mg/kg [1] is on record?
Its inhibition in vivo at 0.001 mg/kg is 0%.

What about the inhibition in vivo at 0.01 mg/kg [1] of the same molecule?
The inhibition in vivo at 0.01 mg/kg was 56%.

And the inhibition in vivo at 0.1 mg/kg [1]?
Its inhibition in vivo at 0.1 mg/kg is 90%.

And the IC50 [2, 4]?
Its IC50 is 4.04 nM.

How did the IC50 [2, 5] turn out when Cn1c(=O)oc2cc(C(c3ccc(C#N)cc3)n3ccnc3)ccc21 (stereo not shown) [PCH27] was run?
The IC50 was 4.62 nM.

What about the IC50 [3] of the same molecule?
Its IC50 is 72 nM.

Which results are given for Cn1c(=O)oc2cc(C(c3ccccc3)n3ccnc3)ccc21 (stereo not shown) [AL22, 6-[1H-Imidazol-1-yl(phenyl)methyl]-3-methyl-1,3-benzoxazol-2(3H)-one]?
IC50 [2, 5]: 320 nM; IC50 [3]: 340 nM

Which IC50 [2, 4] does the source give for Cn1c(=O)oc2ccc(C(c3ccc(Cl)cc3)n3cncn3)cc21 (stereo not shown) [PCH196] here?
Its IC50 is 24.9 nM.

How did the IC50 [3] turn out when Cn1c(=O)sc2cc(C(c3ccccc3)n3ccnc3)ccc21 (racemic) [(E2) PCH28] was run?
The IC50 was 22.6 nM.

Cn1c(=O)oc2ccc(C(c3ccc(Cl)cc3)n3cncn3)cc21 (stereo not shown) [PCH160, 5-[(4-Chlorophenyl)(1H-1,2,4-triazol-1-yl)methyl]-3-methyl-1,3-benzoxazol-2(3H)-one] was tested. Which IC50 [2, 4] did it give?
The IC50 was 18.7 nM.
